Laboratory results published in patent publication US11865098B1, “Methods and compositions for treating excessive sleepiness” (Axsome Malta Ltd., priority 2017, dated 2024).

Tested on: patients with narcolepsy type 1 or type 2
Assay: MWT, 12-week phase 3 study in narcolepsy
Type: in vivo, human
Procedure: The MWT is an objective test used to measure how alert a subject is during the day. The test consists of four sleep trials with two hours in between the trials. The first trial is performed 1.5-3 hours after the subject's normal wake-up time. Sensors are placed on the head, face, and chin to detect when the subject is asleep and awake during the test. The subject sits quietly in bed with his or her back and head supported by a pillow and is asked to sit still and look straight ahead while trying to stay awake as long as possible. Each trial lasts 40 minutes or until the subject is asleep for 90 seconds. Between trials, the subject stays out of bed and occupies himself or herself to remain awake. Falling asleep in an average of less than eight minutes is considered abnormal. About 40-60% of subjects with normal sleep stay awake for the entire 40 minutes of all four trials.
The study was a 12-week, double-blind, randomized, placebo-controlled, parallel-group study. Patients were randomized (1:1:1:1) to receive placebo or APC 75, 150, or 300 mg; randomization was stratified by the presence or absence of cataplexy.
Key inclusion criteria included adults 18-75 years old, inclusive, with a diagnosis of narcolepsy type 1 or type 2 according to ICSD-3 (American Academy of Sleep Medicine. The International Classification of Sleep Disorders—Third Edition (ICSD-3). Darien, IL: American Academy of Sleep Medicine; 2014) or DSM-5 (American Psychiatric Association. Diagnostic and Statistical Manual of Mental Disorders Fifth Edition (DSM-5). Arlington, VA: American Psychiatric Association; 2013) criteria, baseline mean sleep latency <25 minutes on the first 4 trials of a 5-trial, 40-minute Maintenance of Wakefulness Test (MWT) and baseline Epworth Sleepiness Scale (ESS) (Johns, Sleep 14(6):540 (1991)) score ≥10, usual nightly total sleep time ≥6 hours, and body mass index between 18 and 45 kg/m^2.
Co-primary endpoints were change from baseline to week 12 in MWT mean sleep latency and ESS score. The key secondary endpoint was the percentage of patients who reported improvement on the Patient Global Impression of Change (PGI-C) (Guy, ECDEU assessment manual for psychopharmacology, revised. US Department of Health, Education, and Welfare publication (ADM 76-338). Rockville, MD: National Institute of Mental Health; 1976) at week 12. Other secondary and exploratory endpoints included changes on function and quality-of-life and changes in the number of cataplexy attacks per week. Safety evaluation included adverse events, laboratory tests, and vital signs.
Efficacy analyses were based on the modified intent-to-treat population (mITT), defined as all patients who were randomized, received at least 1 dose of study drug, and had baseline and at least 1 post-baseline evaluation of both MWT and ESS. MWT and ESS were analyzed using a mixed-effect repeated measures (MMRM) model. PGI-C was analyzed using a chi-square test. A fixed hierarchical testing procedure was used to correct for multiplicity, starting with the highest dose of APC for the co-primary endpoints and the key secondary endpoint; testing proceeded with each subsequent lower doses.

[1] = Combined JZP-110, Week 12, mITT

`NC(=O)OC[C@H](N)Cc1ccccc1` [JZP-110, (R)-2-amino-3-phenylpropyl carbamate] was tested, and the “MWT mean sleep latency increase from baseline >=15 minutes, n subjects” value (300 mg, Week 1, mITT) was 11, the “MWT mean sleep latency increase from baseline >=20 minutes, % of subjects” value (300 mg, Week 1, mITT) was “(32.0) %” and the “MWT mean sleep latency increase from baseline >=20 minutes, n subjects” value (300 mg, Week 1, mITT) was 8. The “MWT mean sleep latency increase from baseline >=25 minutes, % of subjects” value (300 mg, Week 1, mITT) was “(24.0) %”, the “MWT mean sleep latency increase from baseline >=25 minutes, n subjects” value (300 mg, Week 1, mITT) was 6 and the “MWT mean sleep latency increase from baseline >=30 minutes, % of subjects” value (300 mg, Week 1, mITT) was “(20.0) %”. The “MWT mean sleep latency increase from baseline >=30 minutes, n subjects” value (300 mg, Week 1, mITT) was 5, the “MWT mean sleep latency increase from baseline >=5 minutes, % of subjects” value (300 mg, Week 4, mITT) was “(69.2) %” and the “MWT mean sleep latency increase from baseline >=5 minutes, n subjects” value (300 mg, Week 4, mITT) was 36. The “MWT mean sleep latency increase from baseline >=10 minutes, % of subjects” value (300 mg, Week 4, mITT) was “(53.8) %”, the “MWT mean sleep latency increase from baseline >=10 minutes, n subjects” value (300 mg, Week 4, mITT) was 28 and the “MWT mean sleep latency increase from baseline >=15 minutes, % of subjects” value (300 mg, Week 4, mITT) was “(36.5) %”. For the same molecule, the “MWT mean sleep latency increase from baseline >=15 minutes, n subjects” value (300 mg, Week 4, mITT) was 19, the “MWT mean sleep latency increase from baseline >=20 minutes, % of subjects” value (300 mg, Week 4, mITT) was “(25.0) %” and the “MWT mean sleep latency increase from baseline >=20 minutes, n subjects” value (300 mg, Week 4, mITT) was 13. For the same molecule, the “MWT mean sleep latency increase from baseline >=25 minutes, % of subjects” value (300 mg, Week 4, mITT) was “(17.3) %”, the “MWT mean sleep latency increase from baseline >=25 minutes, n subjects” value (300 mg, Week 4, mITT) was 9 and the “MWT mean sleep latency increase from baseline >=30 minutes, % of subjects” value (300 mg, Week 4, mITT) was “(13.5) %”. For the same molecule, the “MWT mean sleep latency increase from baseline >=30 minutes, n subjects” value (300 mg, Week 4, mITT) was 7, the “MWT mean sleep latency increase from baseline >=5 minutes, % of subjects” value (300 mg, Week 12, mITT) was “(60.0) %” and the “MWT mean sleep latency increase from baseline >=5 minutes, n subjects” value (300 mg, Week 12, mITT) was 24. For the same molecule, the “MWT mean sleep latency increase from baseline >=10 minutes, % of subjects” value (300 mg, Week 12, mITT) was “(50.0) %”, the “MWT mean sleep latency increase from baseline >=10 minutes, n subjects” value (300 mg, Week 12, mITT) was 20 and the “MWT mean sleep latency increase from baseline >=15 minutes, % of subjects” value (300 mg, Week 12, mITT) was “(37.5) %”. For the same molecule, the “MWT mean sleep latency increase from baseline >=15 minutes, n subjects” value (300 mg, Week 12, mITT) was 15, the “MWT mean sleep latency increase from baseline >=20 minutes, % of subjects” value (300 mg, Week 12, mITT) was “(27.5) %” and the “MWT mean sleep latency increase from baseline >=20 minutes, n subjects” value (300 mg, Week 12, mITT) was 11. For the same molecule, the “MWT mean sleep latency increase from baseline >=25 minutes, % of subjects” value (300 mg, Week 12, mITT) was “(15.0) %”, the “MWT mean sleep latency increase from baseline >=25 minutes, n subjects” value (300 mg, Week 12, mITT) was 6 and the “MWT mean sleep latency increase from baseline >=30 minutes, % of subjects” value (300 mg, Week 12, mITT) was “(7.5) %”. For the same molecule, the “MWT mean sleep latency increase from baseline >=30 minutes, n subjects” value (300 mg, Week 12, mITT) was 3, the “MWT mean sleep latency relative to placebo” value (150 and 300 mg, week 12, mITT) was “significantly increased MWT mean sleep latency relative to placebo” and the “MWT mean sleep latency increase from baseline >=5 minutes, % of subjects” value (Combined JZP-110, Week 1, mITT) was “(53.9) %”. For the same molecule, the “MWT mean sleep latency increase from baseline >=5 minutes, n subjects” value (Combined JZP-110, Week 1, mITT) was 41, the “MWT mean sleep latency increase from baseline >=10 minutes, % of subjects” value (Combined JZP-110, Week 1, mITT) was “(42.1) %” and the “MWT mean sleep latency increase from baseline >=10 minutes, n subjects” value (Combined JZP-110, Week 1, mITT) was 32. For the same molecule, the “MWT mean sleep latency increase from baseline >=15 minutes, % of subjects” value (Combined JZP-110, Week 1, mITT) was “(27.6) %”, the “MWT mean sleep latency increase from baseline >=15 minutes, n subjects” value (Combined JZP-110, Week 1, mITT) was 21 and the “MWT mean sleep latency increase from baseline >=20 minutes, % of subjects” value (Combined JZP-110, Week 1, mITT) was “(17.1) %”. The “MWT mean sleep latency increase from baseline >=20 minutes, n subjects” value (Combined JZP-110, Week 1, mITT) was 13, the “MWT mean sleep latency increase from baseline >=25 minutes, % of subjects” value (Combined JZP-110, Week 1, mITT) was “(9.2) %” and the “MWT mean sleep latency increase from baseline >=25 minutes, n subjects” value (Combined JZP-110, Week 1, mITT) was 7. For the same molecule, the “MWT mean sleep latency increase from baseline >=30 minutes, % of subjects” value (Combined JZP-110, Week 1, mITT) was “(6.6) %”, the “MWT mean sleep latency increase from baseline >=30 minutes, n subjects” value (Combined JZP-110, Week 1, mITT) was 5 and the “MWT mean sleep latency increase from baseline >=5 minutes, % of subjects” value (Combined JZP-110, Week 4, mITT) was “(57.6) %”. The “MWT mean sleep latency increase from baseline >=5 minutes, n subjects” value (Combined JZP-110, Week 4, mITT) was 87, the “MWT mean sleep latency increase from baseline >=10 minutes, % of subjects” value (Combined JZP-110, Week 4, mITT) was “(40.4) %” and the “MWT mean sleep latency increase from baseline >=10 minutes, n subjects” value (Combined JZP-110, Week 4, mITT) was 61. For the same molecule, the “MWT mean sleep latency increase from baseline >=15 minutes, % of subjects” value (Combined JZP-110, Week 4, mITT) was “(26.5) %”, the “MWT mean sleep latency increase from baseline >=15 minutes, n subjects” value (Combined JZP-110, Week 4, mITT) was 40 and the “MWT mean sleep latency increase from baseline >=20 minutes, % of subjects” value (Combined JZP-110, Week 4, mITT) was “(15.9) %”. For the same molecule, the “MWT mean sleep latency increase from baseline >=20 minutes, n subjects” value (Combined JZP-110, Week 4, mITT) was 24, the “MWT mean sleep latency increase from baseline >=25 minutes, % of subjects” value (Combined JZP-110, Week 4, mITT) was “(9.3) %” and the “MWT mean sleep latency increase from baseline >=25 minutes, n subjects” value (Combined JZP-110, Week 4, mITT) was 14. For the same molecule, the “MWT mean sleep latency increase from baseline >=30 minutes, % of subjects” value (Combined JZP-110, Week 4, mITT) was “(4.6) %”, the “MWT mean sleep latency increase from baseline >=30 minutes, n subjects” value (Combined JZP-110, Week 4, mITT) was 7 and the “MWT mean sleep latency increase from baseline >=5 minutes, % of subjects” value [1] was “(52.9) %”. The “MWT mean sleep latency increase from baseline >=5 minutes, n subjects” value [1] was 72, the “MWT mean sleep latency increase from baseline >=10 minutes, % of subjects” value [1] was “(39.0) %” and the “MWT mean sleep latency increase from baseline >=10 minutes, n subjects” value [1] was 53. The “MWT mean sleep latency increase from baseline >=15 minutes, % of subjects” value [1] was “(29.4) %”, the “MWT mean sleep latency increase from baseline >=15 minutes, n subjects” value [1] was 40 and the “MWT mean sleep latency increase from baseline >=20 minutes, % of subjects” value [1] was “(17.6) %”. For the same molecule, the “MWT mean sleep latency increase from baseline >=20 minutes, n subjects” value [1] was 24, the “MWT mean sleep latency increase from baseline >=25 minutes, % of subjects” value [1] was “(8.1) %” and the “MWT mean sleep latency increase from baseline >=25 minutes, n subjects” value [1] was 11. The “MWT mean sleep latency increase from baseline >=30 minutes, % of subjects” value [1] was “(2.9) %”, the “MWT mean sleep latency increase from baseline >=30 minutes, n subjects” value [1] was 4 and the “MWT mean sleep latency, effect at week 1” value (all doses, as early as week 1) was “Statistically significant effects”. For the same molecule, the “Tolerance to the wake-promoting effects” value (over the 12 weeks of the study) was “no apparent tolerance to the wake-promoting effects”.
